# Measured values reported in paper PMC4865845, “A human genome-wide loss-of-function screen identifies effective chikungunya antiviral drugs” (Nature Communications, 2016).
# Tested on: CHIKV
# Type: cell-based, chikungunya virus
substance,measurement,value
Hs_GUCY1B3_1 (sense AAGGGTCAAATGATCTACTTA; chemistry not given here) [reference compound],Score_si2,-0.88
Hs_GUCY1B3_2 (sense ACCTAACATGGTGATCTGCAA; chemistry not given here) [reference compound],Score_si1,-1.2
Hs_GUCY1B3_3 (sense CAAGACTTTCTTCTAGATATA; chemistry not given here) [reference compound],Score_si3,-0.83
Hs_HMGA1L4_1 (sense AAGCCTCAGCTCAAACTCAAA; chemistry not given here),Score_si1,2.38
Hs_HMGA1L4_2 (sense CTGGCTGGATGAAGACAGTAA; chemistry not given here),Score_si4,0.45
Hs_HMMR_2 (sense AAGTTAAGTCTTCGGAATCAA; chemistry not given here),Score_si1,2.42
Hs_HSPE1_4 (sense CTGAAATAAGTCACTATTGAA; chemistry not given here),Score_si4,1.81
Hs_HSPE1_6 (sense GAGGGAGTAATGGCAGGACAA; chemistry not given here),Score_si1,2.37
Hs_HTATIP_8 (sense CACCACATTGCCTGTCCTCTA; chemistry not given here),Score_si1,2.67
Hs_INTS8_2 (sense CTGGGAATTAAAGACAATTTA; chemistry not given here),Score_si2,2.65
Hs_IQGAP1_1 (sense CTGGGAGATAATGCCCACTTA; chemistry not given here),Score_si2,1.04
Hs_IQGAP1_3 (sense AAGGCATATCAAGATCGGTTA; chemistry not given here),Score_si4,0.77
Hs_IQGAP1_4 (sense TGCCCACTTAAGCATCATTAA; chemistry not given here),Score_si3,0.98
Hs_IRAK1_5 (sense CCGGGCAATTCAGTTTCTACA; chemistry not given here),Score_si4,1.36
Hs_IRAK1_6 (sense TCCCATCGCCATGCAGATCTA; chemistry not given here),Score_si3,1.57
Hs_IRAK1_10 (sense AAGCAAGTCAGGTTTCATGTA; chemistry not given here),Score_si2,1.62
Hs_ITGB4BP_1 (sense CTGGATCTATCATTACTGCAA; chemistry not given here),Score_si3,1.14
Hs_ITGB4BP_2 (sense AAGCTACTGTGTCTTCAGCAA; chemistry not given here),Score_si4,1.08
Hs_ITGB4BP_3 (sense CAGGGAGACAGAAGAAATTCT; chemistry not given here),Score_si1,1.54
Hs_KAZALD1_1 (sense CCGGAGGAGCTGCTTTCTGAA; chemistry not given here),Score_si2,1.12
Hs_KAZALD1_2 (sense ACAGGGCTAGGCACCAATAAA; chemistry not given here),Score_si1,1.74
Hs_KCTD10_1 (sense AAGGCTTTGTTTAGGGATCAA; chemistry not given here),Score_si1,2.04
Hs_KIAA0252_2 (sense AAGGAATTATCTATTAAAGAA; chemistry not given here),Score_si1,2.74
Hs_KIAA0674_1 (sense CCGGAAACAACTGGAACTCAA; chemistry not given here),Score_si1,1.96
Hs_KIAA0674_2 (sense CCCGGCAACATAACACTGAAA; chemistry not given here),Score_si2,1.52
Hs_KIAA0947_2 (sense CTGGCAGTTTATTGCTCTTAA; chemistry not given here),Score_si1,2.71
Hs_KIAA1012_2 (sense CAGGGTTGCTATTTACTTAAA; chemistry not given here),Score_si1,2.22
Hs_KRTCAP2_5 (sense CTCGCTCACTGCCTTCAATAA; chemistry not given here),Score_si3,1.15
Hs_KRTCAP2_6 (sense CTGACCCTGAATGTTCAATAA; chemistry not given here),Score_si1,1.71
Hs_KRTHA2_1 (sense CAGATGGAGGAGCTTAACCAA; chemistry not given here),Score_si1,1.15
Hs_KRTHA2_2 (sense ATGGTTGTGAACATTGATAAT; chemistry not given here),Score_si2,1.02
Hs_LBX1_1 (sense CACCAGATCTATGAATTGGAA; chemistry not given here),Score_si3,1.41
Hs_LBX1_2 (sense CAAGGCCGAGATGACTTCCAA; chemistry not given here),Score_si1,2
Hs_LIP8_1 (sense CTGGACTTTGCTAAAGCAGAA; chemistry not given here),Score_si4,0.62
Hs_LIP8_2 (sense AAGCATATCTTTGAGATGGAA; chemistry not given here),Score_si1,2.14
Hs_LOC283377_3 (sense CAGGCCTTTCTCAGACTGTAT; chemistry not given here),Score_si1,2.72
Hs_LOC283377_7 (sense AAAGCTAGGCATACAGCCAAA; chemistry not given here),Score_si3,0.76
Hs_LOC407835_4 (sense CAGGGAGATCAGCATCTGCAT; chemistry not given here),Score_si2,0.79
Hs_LOC407835_6 (sense CTGCTGGACTATATTGTGAAA; chemistry not given here),Score_si3,0.74
Hs_LOH12CR1_1 (sense CCCGATGTCATCAAGTTGCAA; chemistry not given here),Score_si1,2.42
Hs_LOXL2_1 (sense CCGGAGTTGCCTGCTCAGAAA; chemistry not given here),Score_si2,1.33
Hs_LOXL2_3 (sense CAGGCAATGAGAAGTCCATTA; chemistry not given here),Score_si1,2.38
Hs_LOXL2_4 (sense CTCGAGATTCCGGAAAGCATA; chemistry not given here),Score_si4,0.97
Hs_LRIG2_1 (AGGGATGTCATTGTAAATATA; chemistry not given here) [reference compound],Score_si1,-2.53
Hs_LRP6_2 (CTGGATTGTTATCCGACTGAA; chemistry not given here),Score_si2,1.63
Hs_LRP6_7 (CTGGATGGTTCTGACCGTGTA; chemistry not given here),Score_si1,1.93
Hs_LTBP3_1 (CCGGGACAGATCTCAGCAGAA; chemistry not given here),Score_si2,1.9
Hs_LTBP3_2 (CCGCTACTGCGTGGATGTGAA; chemistry not given here),Score_si4,1.32
Hs_MAP2K2_9 (TTCCAGGAGTTTGTCAATAAA; chemistry not given here),Score_si4,0.51
Hs_MAP3K14_1 (CAGGACTCACGTAGCATTAAA; chemistry not given here),Score_si2,1.59
Hs_MAP3K14_5 (CACATGCATGTGACTCCTCAA; chemistry not given here),Score_si4,0.74
Hs_MAP3K14_6 (TACCTAGTGCATGCTCTGCAA; chemistry not given here),Score_si3,1.59
Hs_MAZ_2 (CCGCGACGTCTACCACCTGAA; chemistry not given here),Score_si1,2.43
Hs_MDS032_1 (TCGAATCATGCCTAAACTCAA; chemistry not given here),Score_si4,1.39
Hs_MGC2803_1 (TGCGATGTACATAACTATTTA; chemistry not given here),Score_si4,-0.65
Hs_MGC2803_2 (CGGGAACAAACTAGCCCTCAA; chemistry not given here),Score_si1,2.43
Hs_MGC11102_1 (TAGCGTGGCTTTAAACATATA; chemistry not given here),Score_si2,1.11
Hs_MGC11102_2 (CAGGTGGTTTGTTCTTTCTTA; chemistry not given here),Score_si1,1.25
Hs_MGC13138_1 (CTGGCATTTCCCGCTCATTTA; chemistry not given here) [reference compound],Score_si1,-2.19
Hs_MGC21830_1 (CCGGAGACAGCGGCTGATTTA; chemistry not given here) [reference compound],Score_si1,-1.05
Hs_MGC21830_2 (CAGCTGGGCGGTGCTGTTCGA; chemistry not given here) [reference compound],Score_si2,-1.02
Hs_MRPS12_2 (CTGCTGGGACAAGACACTGTA; chemistry not given here),Score_si2,1.92
Hs_MRPS12_7 (TTCCATCAGGACCACTATTAA; chemistry not given here),Score_si1,1.99
Hs_NAG_1 (CAGAGGAAGATTGAAAGTGAA; chemistry not given here),Score_si2,2.12
Hs_NAG_2 (CAGACAGAAATTCTTTATCAA; chemistry not given here),Score_si1,2.66
Hs_NCOA1_1 (CAGCGGGAACTGTACAGTCAA; chemistry not given here),Score_si2,1.96
Hs_NCOA1_14 (CTCCTAATATTTCGACATTAA; chemistry not given here),Score_si1,2.06
Hs_NDUFA2_2 (TCCACTGAGGATTAAGAGCAA; chemistry not given here),Score_si1,2.51
Hs_NDUFA7_1 (CAGGGAGAATGTGACCTAATT; chemistry not given here) [reference compound],Score_si1,-2.23
Hs_NPAT_1 (ACCAATGCACATATAATTTAA; chemistry not given here) [reference compound],Score_si2,-1.26
Hs_NPAT_2 (AAGGCACATCTTCAAACAATA; chemistry not given here) [reference compound],Score_si1,-1.61
Hs_NPEPL1_1 (CTGATTTATAGGGCAAGAGAA; chemistry not given here),Score_si4,1.11
Hs_NPEPL1_2 (CACCTTCCTCGAGGAGATTAA; chemistry not given here),Score_si2,1.71
Hs_NPEPL1_3 (CTGCAATGAGATGAACACCGA; chemistry not given here),Score_si1,2.35
Hs_NPEPL1_4 (CAGAATTCACTTGAGGTTCAA; chemistry not given here),Score_si3,1.44
Hs_NRCAM_1 (CAGGCCTTCAGTACAAAGTTA; chemistry not given here),Score_si3,0.75
Hs_NRCAM_2 (AACGCTCATAATTAACATCAT; chemistry not given here),Score_si4,0.35
Hs_NRCAM_3 (GACGTTTGGTTTAAAGAATTA; chemistry not given here),Score_si2,0.93
Hs_NRCAM_4 (AGGGTGGTAAATATCCAGTTA; chemistry not given here),Score_si1,1.08
